# How the values were obtained:
# Format in all cases: in vivo
# [1] = test system: pigweed (Amaranthus retroflexus); assay: Test C greenhouse herbicide test, pre- and postemergence
# From the text: (§1) Seeds of plant species selected from blackgrass (Alopecurus myosuroides), ryegrass, Italian (Italian ryegrass, Lolium multiflorum), wheat (winter wheat, Triticum aestivum), galium (catchweed bedstraw, Galium aparine), corn (Zea mays), large crabgrass, large (large crabgrass, Digitaria sanguinalis), foxtail, giant (giant foxtail, Setaria faberii), johnsongrass (Sorghum halepense), lambsquarters (Chenopodium album), morningglory (Ipomoea coccinea), nutsedge, yellow (yellow nutsedge, Cyperus esculentus), pigweed (Amaranthus retroflexus), ragweed (common ragweed, Ambrosia elatior), soybean (Glycine max), barnyardgrass (Echinochloa crus-galli), oilseed rape (Brassica napus), waterhemp (common waterhemp, Amaranthus rudis), and velvetleaf (Abutilon theophrasti) were planted into a blend of loam soil and sand and treated preemergence with test chemicals formulated in a non-phytotoxic solvent mixture which included a surfactant.
# (§2) At the same time, plants selected from these crop and weed species and also chickweed (common chickweed, Stellaria media), kochia (Kochia scoparia), and oat, wild (wild oat, Avena fatua), were planted in pots containing Redi-Earth® planting medium (Scotts Company, 14111 Scottslawn Road, Marysville, Ohio 43041) comprising spaghnum peat moss, vermiculite, wetting agent and starter nutrients and treated with postemergence applications of test chemicals formulated in the same manner. Plants ranged in height from 2 to 18 cm (1- to 4-leaf stage) for postemergence treatments. Treated plants and controls were maintained in a greenhouse for 13 to 15 d, after which time all species were compared to controls and visually evaluated. Plant response ratings, summarized in Table C, are based on a scale of 0 to 100 where 0 is no effect and 100 is complete control. A dash (-) response means no test result.
# [2] = test system: morningglory (Ipomoea coccinea); assay: as above
# From the text: as §1, §2
# [3] = test system: wheat (winter wheat, Triticum aestivum); assay: as above
# From the text: as §1, §2
# [4] = test system: waterhemp (common waterhemp, Amaranthus rudis); assay: as above
# From the text: as §1, §2
# [5] = test system: lambsquarters (Chenopodium album); assay: as above
# From the text: as §1, §2
# corn (Zea mays) = assay: as above
# From the text: as §1, §2
# [6] = test system: blackgrass (Alopecurus myosuroides); assay: as above
# From the text: as §1, §2
# [7] = test system: nutsedge, yellow (yellow nutsedge, Cyperus esculentus); assay: as above; conditions: Preemergence; for Plant response rating, Nutsedge, Yellow: scale 0 to 100, 0 is no effect, 100 is complete control
# From the text: as §1, §2
# [8] = test system: oilseed rape (Brassica napus); assay: as above
# From the text: as §1, §2
# [9] = test system: johnsongrass (Sorghum halepense); assay: as above
# From the text: as §1, §2
# [10] = test system: crabgrass, large (large crabgrass, Digitaria sanguinalis); assay: as above
# From the text: as §1, §2
# [11] = test system: foxtail, giant (giant foxtail, Setaria faberii); assay: as above
# From the text: as §1, §2
# [12] = test system: barnyardgrass (Echinochloa crus-galli); assay: as above
# From the text: as §1, §2
# [13] = test system: velvetleaf (Abutilon theophrasti); assay: as above
# From the text: as §1, §2
# kochia (Kochia scoparia) = assay: Test C greenhouse herbicide test, postemergence
# From the text: as §2
# [14] = test system: oat, wild (wild oat, Avena fatua); assay: Test C greenhouse herbicide test, postemergence
# From the text: as §2
# [15] = Postemergence, 31 g ai/ha, 0 to 100 scale (0 no effect, 100 complete control)
# [16] = Postemergence, 125 g ai/ha, scale 0 to 100, 0 is no effect, 100 is complete control
# [17] = Postemergence, 250 g ai/ha, scale 0 to 100, 0 no effect, 100 complete control, 13 to 15 d
# [18] = Preemergence, 31 g ai/ha, scale 0 to 100, 0 is no effect, 100 is complete control
# [19] = Preemergence, 62 g ai/ha, scale 0 to 100, 0 is no effect, 100 is complete control
# [20] = Preemergence, 125 g ai/ha, scale 0 to 100, 0 is no effect, 100 is complete control
# [21] = Preemergence, 250 g ai/ha, scale 0 to 100 (0 no effect, 100 complete control)
# [22] = postemergence, 62 g ai/ha, scale 0 to 100, 0 no effect, 100 complete control
smiles,measurement,setting,value
"Cc1ccc2sc(C)c(-c3c(O)c(C)nn(C)c3=O)c2c1 [Compound 1, 4-(2,5-dimethylbenzo[b]thien-3-yl)-5-hydroxy-2,6-dimethyl-3(2H)-pyridazinone]",Pigweed plant response rating,[1]; [15],95
same,"Plant response rating, Pigweed",[1]; [16],98
same,"Plant response rating, Pigweed",[1]; [17],100
same,"Plant response rating, Pigweed",[1]; [18],100
same,"Plant response rating, Pigweed",[1]; [19],100
same,"Plant response rating, Pigweed",[1]; [20],100
same,Pigweed plant response rating,[1]; [21],100
same,Pigweed plant response rating,[1]; [22],95
same,Morningglory plant response rating,[2]; [15],100
same,"Plant response rating, Morningglory",[2]; [16],100
same,"Plant response rating, Morningglory",[2]; [17],100
same,"Plant response rating, Morningglory",[2]; [18],95
same,"Plant response rating, Morningglory",[2]; [19],100
same,"Plant response rating, Morningglory",[2]; [20],100
same,Morningglory plant response rating,[2]; [21],100
same,Morningglory plant response rating,[2]; [22],100
same,Wheat plant response rating,[3]; [15],0
same,"Plant response rating, Wheat",[3]; [16],10
same,"Plant response rating, Wheat",[3]; [17],15
same,"Plant response rating, Wheat",[3]; [19],0
same,"Plant response rating, Wheat",[3]; [20],5
same,Wheat plant response rating,[3]; [21],20
same,Wheat plant response rating,[3]; [22],0
same,Waterhemp plant response rating,[4]; [15],95
same,"Plant response rating, Waterhemp",[4]; [16],100
same,"Plant response rating, Waterhemp",[4]; [17],100
same,"Plant response rating, Waterhemp",[4]; [19],100
same,"Plant response rating, Waterhemp",[4]; [20],100
same,Waterhemp plant response rating,[4]; [21],100
same,Waterhemp plant response rating,[4]; [22],95
same,Lambsquarters plant response rating,[5]; [15],85
same,"Plant response rating, Lambsquarters",[5]; [16],100
same,"Plant response rating, Lambsquarters",[5]; [17],100
same,"Plant response rating, Lambsquarters",[5]; [18],80
same,"Plant response rating, Lambsquarters",[5]; [19],95
same,"Plant response rating, Lambsquarters",[5]; [20],100
same,Lambsquarters plant response rating,[5]; [21],100
same,Lambsquarters plant response rating,[5]; [22],100
same,Corn plant response rating,corn (Zea mays); [15],0
same,"Plant response rating, Corn",corn (Zea mays); [16],5
same,"Plant response rating, Corn",corn (Zea mays); [17],40
same,"Plant response rating, Corn",corn (Zea mays); [18],0
same,"Plant response rating, Corn",corn (Zea mays); [19],0
same,"Plant response rating, Corn",corn (Zea mays); [20],0
same,Corn plant response rating,corn (Zea mays); [21],5
same,Corn plant response rating,corn (Zea mays); [22],25
same,Blackgrass plant response rating,[6]; [15],20
same,"Plant response rating, Blackgrass",[6]; [16],60
same,"Plant response rating, Blackgrass",[6]; [17],75
same,"Plant response rating, Blackgrass",[6]; [18],60
same,"Plant response rating, Blackgrass",[6]; [19],90
same,"Plant response rating, Blackgrass",[6]; [20],90
same,Blackgrass plant response rating,[6]; [21],90
same,Blackgrass plant response rating,[6]; [22],50
same,"Plant response rating, Nutsedge, Yellow",[7]; 31 g ai/ha,40
same,"Plant response rating, Nutsedge, Yellow",[7]; 62 g ai/ha,35
same,"Plant response rating, Nutsedge, Yellow",[7]; 125 g ai/ha,70
same,"Nutsedge, Yellow plant response rating","[7]; 250 g ai/ha, scale 0 to 100 (0 no effect, 100 complete control)",75
same,Oilseed Rape plant response rating,[8]; [15],0
same,"Plant response rating, Oilseed Rape",[8]; [16],5
same,"Plant response rating, Oilseed Rape",[8]; [17],40
same,"Plant response rating, Oilseed Rape",[8]; [18],0
same,"Plant response rating, Oilseed Rape",[8]; [19],5
same,Oilseed Rape plant response rating,[8]; [21],20
same,Oilseed Rape plant response rating,[8]; [22],0
same,Johnsongrass plant response rating,[9]; [15],0
same,"Plant response rating, Johnsongrass",[9]; [16],0
same,"Plant response rating, Johnsongrass",[9]; [17],15
same,"Plant response rating, Johnsongrass",[9]; [18],0
same,"Plant response rating, Johnsongrass",[9]; [19],5
same,"Plant response rating, Johnsongrass",[9]; [20],5
same,Johnsongrass plant response rating,[9]; [21],5
same,Johnsongrass plant response rating,[9]; [22],0
same,"Crabgrass, Large plant response rating",[10]; [15],20
same,"Plant response rating, Crabgrass, Large",[10]; [16],25
same,"Plant response rating, Crabgrass, Large",[10]; [17],35
same,"Plant response rating, Crabgrass, Large",[10]; [18],35
same,"Plant response rating, Crabgrass, Large",[10]; [19],40
same,"Plant response rating, Crabgrass, Large",[10]; [20],80
same,"Crabgrass, Large plant response rating",[10]; [21],100
same,"Crabgrass, Large plant response rating",[10]; [22],10
same,"Foxtail, Giant plant response rating",[11]; [15],35
same,"Plant response rating, Foxtail, Giant",[11]; [16],60
same,"Plant response rating, Foxtail, Giant",[11]; [17],90
same,"Plant response rating, Foxtail, Giant",[11]; [18],55
same,"Plant response rating, Foxtail, Giant",[11]; [19],75
same,"Plant response rating, Foxtail, Giant",[11]; [20],100
same,"Foxtail, Giant plant response rating",[11]; [21],100
same,"Foxtail, Giant plant response rating",[11]; [22],15
same,Barnyardgrass plant response rating,[12]; [15],0
same,"Plant response rating, Barnyardgrass",[12]; [16],5
same,"Plant response rating, Barnyardgrass",[12]; [17],5
same,"Plant response rating, Barnyardgrass",[12]; [18],5
same,"Plant response rating, Barnyardgrass",[12]; [19],5
same,"Plant response rating, Barnyardgrass",[12]; [20],25
same,Barnyardgrass plant response rating,[12]; [21],90
same,Barnyardgrass plant response rating,[12]; [22],5
same,Velvetleaf plant response rating,[13]; [15],80
same,"Plant response rating, Velvetleaf",[13]; [16],95
same,"Plant response rating, Velvetleaf",[13]; [17],100
same,"Plant response rating, Velvetleaf",[13]; [19],90
same,"Plant response rating, Velvetleaf",[13]; [20],100
same,Velvetleaf plant response rating,[13]; [21],98
same,Velvetleaf plant response rating,[13]; [22],85
same,Kochia plant response rating,kochia (Kochia scoparia); [15],95
same,"Plant response rating, Kochia",kochia (Kochia scoparia); [16],95
same,"Plant response rating, Kochia",kochia (Kochia scoparia); [17],100
same,Kochia plant response rating,kochia (Kochia scoparia); [22],95
same,"Oat, Wild plant response rating",[14]; [15],50
same,"Plant response rating, Oat, Wild",[14]; [16],85
same,"Plant response rating, Oat, Wild",[14]; [17],100
same,"Oat, Wild plant response rating",[14]; [22],70
